Measurements: patent publication US6858235B2, “Antioxidant composition and method of preparation thereof” (Eromlife Co. Ltd., priority 2002, dated 2005)

Experiment: Antioxidant activity using the free radical source DPPH (absorbance at 517 nm)
Format: biochemical
Details: for Antioxidant activity RC50: DPPH 0.4 mM, room temperature, 30 minutes, absorbance 517 nm, concentration giving 50% of control absorbance
Method: The antioxidant activity of the Rosa multiflora extract of the present invention obtained according to the above method was measured according to the method for measuring antioxidant activity (The Korean Society of Food and Nutrition, Handbook for Experiments in Food and Nutrition, 651p, 2000; Blois, M. S., Nature, 4617:1198, 1958).
In addition, active fractions showing antioxidant activity can be obtained by fractionating and purifying the obtained Rosa multiflora extracts by chromatography. It is preferable to carry out silica gel column chromatography once or twice. Where active fractions obtained by silica gel column chromatography are further subjected to ODS column chromatography, more highly purified active fractions can be obtained. A mixture of chloroform and methanol or a mixture of methanol and distilled water can be used as a developing solvent at the time of chromatography. A flow rate of the developing solvent is generally from 5 Ml/hr to 1000 Ml/hr and preferably from 20 Ml/hr to 500 Ml/hr. The fractions eluted by chromatography are collected in flasks in the amount of 5 Ml to 100 Ml respectively. Active fractions showing antioxidant activity can be obtained by measuring antioxidant activities of the collected fractions. Antioxidant activity can be measured by a known method (The Korean Society of Food and Nutrition, Handbook for Experiments in Food and Nutrition, 651p, 2000; Blois, M. S., Nature, 4617:1198, 1958).
Antioxidant activity was measured according to the method for measuring antioxidant activity using a free radical source, 1,1-diphenyl-2-picrylhydrazyl (DPPH) (The Korean Society of Food and Nutrition, Handbook for Experiments in Food and Nutrition, 651p, 2000; Blois, M. S., Nature, 4617: 1198, 1958). […] 0.8 Ml of DPPH (0.4 mM) solution and 3 Ml of ethanol were added, the reaction was carried out at the room temperature for 30 minutes and absorbance was measured at 517 nm. Antioxidant activity was expressed as a RC50 value. The RC50 represents the concentration of antioxidant (μg/Ml) required to achieve an absorbance equal to 50% of the absorbance of a control in which no antioxidants are contained.

Row | Structure (SMILES) | Antioxidant activity RC50 | Antioxidant activity relative to α-tocopherol (times stronger) (compared with the natural antioxidant α-tocopherol, DPPH RC50) | Antioxidant activity relative to BHA (times stronger) (compared with the synthetic antioxidant BHA, DPPH RC50)
1 | COc1ccc(O)c(C(C)(C)C)c1 [BHA, butylated hydroxy anisole, reference compound] | 9.2 µg/mL | – | –
2 | Oc1cc(O)c2c(c1)O[C@H](c1ccc(O)c(O)c1)[C@@H](O)[C@@H]2c1c(O)cc(O)c2c1O[C@H](c1ccc(O)c(O)c1)[C@@H](O)C2 [Procyanidin B3, catechin-(4α→8)-catechin] | 3.4 µg/mL | 3.8 times | 2.7 times
3 | Cc1c(C)c2c(c(C)c1O)CC[C@@](C)(CCC[C@H](C)CCC[C@H](C)CCCC(C)C)O2 [α-tocopherol, reference compound] | 13.0 µg/mL | – | –
